In patent publication US7652047B2, “Phenylamino isothiazole carboxamidines as MEK inhibitors” (Ardea Biosciences, Inc., priority 2005, dated 2010):

Biological target: T1, MEK1^CA (human GST-MEK1, constitutively active, Ser218Asp and Ser222Asp) (Homo sapiens, UniProt Q02750, S218D/S222D)
T1 construct: GST; made in house; host or cells: Escherichia coli
Assay: MEK1 enzymatic activity assay (MEK1^CA / ERK2 / MBP, [γ-33P]ATP incorporation)
Type: biochemical
Conditions: Table 1, compounds of formula I; read-out: Avg IC50
Method in brief: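 Cascade assay: 25 µl reactions with 0.002 nmol E. coli-expressed GST-MEK1 S218D/S222D, 0.02 nmol His-tagged mouse ERK2, 0.25 nmol MBP, 0.25 nmol unlabeled ATP and 0.1 µCi [γ-33P]ATP. Compound preincubated 30 min at ambient temperature with MEK1/ERK2; stopped with TCA, 33P-labelled protein filter-captured and scintillation-counted.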

T1 sequence (Q02750 whole entry S218D/S222D): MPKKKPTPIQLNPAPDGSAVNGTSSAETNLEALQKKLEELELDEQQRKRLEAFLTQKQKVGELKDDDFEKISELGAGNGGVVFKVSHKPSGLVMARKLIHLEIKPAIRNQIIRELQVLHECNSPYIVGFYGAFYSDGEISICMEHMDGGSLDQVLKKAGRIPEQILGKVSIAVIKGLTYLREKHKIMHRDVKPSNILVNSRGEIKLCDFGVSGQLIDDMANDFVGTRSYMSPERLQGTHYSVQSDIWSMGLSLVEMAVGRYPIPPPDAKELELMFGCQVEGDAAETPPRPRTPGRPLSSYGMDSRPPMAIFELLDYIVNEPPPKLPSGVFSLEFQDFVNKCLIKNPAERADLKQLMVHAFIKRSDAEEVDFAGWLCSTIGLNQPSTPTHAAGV

| IC50 | SMILES |
| --- | --- |
| 100 to 500 nM | Cc1cc(Nc2snc(O)c2C(=N)NC(C)CO)ccc1Oc1ccccc1 (stereo not shown) [compound 324] |
| > 500 nM | Cc1ccccc1Oc1ccc(Nc2snc(O)c2C(=N)NC(C)CO)cc1C (stereo not shown) [compound 325] |
| 1 to 100 nM | CC(C)NC(=N)c1c(O)nsc1Nc1ccc(Oc2cccc(F)c2F)cc1 [compound 326] |
| 1 to 100 nM | CC(C)NC(=N)c1c(O)nsc1Nc1ccc(Oc2cc(F)cc(F)c2Cl)c(F)c1 [compound 328] |
| 1 to 100 nM | CC(C)NC(=N)c1c(O)nsc1Nc1ccc(Oc2cc(F)cc(F)c2Cl)cc1 [compound 329] |
| 1 to 100 nM | CC(C)NC(=N)c1c(O)nsc1Nc1ccc(Oc2ccc(Br)cc2)c(F)c1 [compound 330] |
| 1 to 100 nM | CC(C)NC(=N)c1c(O)nsc1Nc1ccc(Oc2cc(C(F)(F)F)cc(C(F)(F)F)c2)cc1 [compound 331] |
| 100 to 500 nM | CC(CO)NC(=N)c1c(O)nsc1Nc1ccc(Oc2cc(C(F)(F)F)cc(C(F)(F)F)c2)cc1 (stereo not shown) [compound 332] |
| 1 to 100 nM | CC(CO)NC(=N)c1c(O)nsc1Nc1ccc(Oc2ccc(Br)cc2)c(F)c1 (stereo not shown) [compound 333] |
| 1 to 100 nM | Cc1cc(Oc2ccccc2)ccc1Nc1snc(O)c1C(=N)NC(C)C [compound 334] |
| 1 to 100 nM | Cc1cc(Oc2ccccc2)ccc1Nc1snc(O)c1C(=N)NC(C)CO (stereo not shown) [compound 335] |
| > 500 nM | CC(C)NC(=N)c1c(O)nsc1Nc1ccc(Oc2cccnc2)c(Cl)c1 [compound 336] |
| 1 to 100 nM | CC(CO)NC(=N)c1c(O)nsc1Nc1ccc(Oc2ccc(Br)c3ccccc23)cc1 (stereo not shown) [compound 337] |
| 1 to 100 nM | CC(CO)NC(=N)c1c(O)nsc1Nc1ccc(Oc2cccc3ccccc23)cc1 (stereo not shown) [compound 338] |
| 1 to 100 nM | CC(C)NC(=N)c1c(O)nsc1Nc1ccc(Oc2ccc(Br)c3ccccc23)cc1 [compound 339] |
| 1 to 100 nM | CC(C)NC(=N)c1c(O)nsc1Nc1ccc(Oc2cccc3ccccc23)cc1 [compound 340] |
| 1 to 100 nM | CC(C)NC(=N)c1c(O)nsc1Nc1ccc(Oc2cccc(Cl)c2Cl)cc1 [compound 341] |
| > 500 nM | Cc1cccc(Cl)c1Oc1ccc(Nc2snc(O)c2C(=N)NC(C)CO)cc1 (stereo not shown) [compound 343] |
| > 500 nM | Cc1cccc(Cl)c1Oc1ccc(Nc2snc(O)c2C(=N)NC(C)C)cc1 [compound 344] |
| 1 to 100 nM | Cc1cccc(Oc2ccc(Nc3snc(O)c3C(=N)NC(C)C)cc2)c1C [compound 345] |
| 1 to 100 nM | Cc1cccc(Oc2ccc(Nc3snc(O)c3C(=N)NC(C)CO)cc2)c1C (stereo not shown) [compound 346] |

| IC50 | SMILES |
| --- | --- |
| 1 to 100 nM | Cc1ccc(F)c(Oc2ccc(Nc3snc(O)c3C(=N)NC(C)C)cc2)c1 [compound 347] |
| 1 to 100 nM | Cc1ccc(F)c(Oc2ccc(Nc3snc(O)c3C(=N)NC(C)CO)cc2)c1 (stereo not shown) [compound 348] |
| 1 to 100 nM | CC(C)NC(=N)c1c(O)nsc1Nc1ccc(Oc2cc(F)ccc2F)cc1 [compound 349] |
| 1 to 100 nM | CC(CO)NC(=N)c1c(O)nsc1Nc1ccc(Oc2cc(F)ccc2F)cc1 (stereo not shown) [compound 350] |
| 1 to 100 nM | CC(C)NC(=N)c1c(O)nsc1Nc1ccc(Oc2cccc(C(F)(F)F)c2F)cc1 [compound 353] |
| 1 to 100 nM | CC(C)NC(=N)c1c(O)nsc1Nc1ccc(Oc2cc(C(F)(F)F)ccc2F)cc1 [compound 355] |
| 1 to 100 nM | CC(C)NC(=N)c1c(O)nsc1Nc1ccc(Oc2ccccc2F)cc1 [compound 356] |
| 1 to 100 nM | CC(C)NC(=N)c1c(O)nsc1Nc1ccc(Oc2ccc(F)cc2F)cc1 [compound 357] |
| 100 to 500 nM | CC(C)NC(=N)c1c(O)nsc1Nc1ccc(Oc2cc(F)cc(C(F)(F)F)c2)cc1 [compound 358] |
| 100 to 500 nM | CC(CO)NC(=N)c1c(O)nsc1Nc1ccc(Oc2ccc(Cl)cc2)c(Cl)c1 (stereo not shown) [compound 359] |
| 100 to 500 nM | CC(C)NC(=N)c1c(O)nsc1Nc1ccc(Oc2ccc(Cl)cc2)c(Cl)c1 [compound 361] |
| 1 to 100 nM | CC(CO)NC(=N)c1c(O)nsc1Nc1ccc(Oc2cccc(F)c2)c(F)c1 (stereo not shown) [compound 362] |
| > 500 nM | CC(C)NC(=N)c1c(O)nsc1Nc1ccc(Oc2cccc(F)c2)c(F)c1 [compound 363] |
| 1 to 100 nM | CC(C)NC(=N)c1c(O)nsc1Nc1ccc(Oc2cccc(C(F)(F)F)c2Cl)c(Cl)c1 [compound 364] |
| 1 to 100 nM | CC(C)NC(=N)c1c(O)nsc1Nc1ccc(Oc2cccc(Cl)c2F)cc1 [compound 366] |
| 1 to 100 nM | CC(C)NC(=N)c1c(O)nsc1Nc1ccc(Oc2cc(Cl)ccc2Cl)c(F)c1 [compound 367] |
| 1 to 100 nM | CC(C)NC(=N)c1c(O)nsc1Nc1ccc(Oc2ccc(F)cc2Cl)c(F)c1 [compound 369] |
| 1 to 100 nM | CC(CO)NC(=N)c1c(O)nsc1Nc1ccc(Oc2ccc(F)cc2Cl)c(F)c1 (stereo not shown) [compound 370] |
| 100 to 500 nM | CC(CO)NC(=N)c1c(O)nsc1Nc1ccc(Oc2ccccc2F)cc1 (stereo not shown) [compound 372] |
| 1 to 100 nM | CC(C)NC(=N)c1c(O)nsc1Nc1ccc(Oc2cccc(C(F)(F)F)c2Cl)c(F)c1 [compound 373] |
| 1 to 100 nM | CC(CO)NC(=N)c1c(O)nsc1Nc1ccc(Oc2ccc(Cl)cc2Cl)c(F)c1 (stereo not shown) [compound 374] |

| IC50 | SMILES |
| --- | --- |
| > 500 nM | CC(CO)NC(=N)c1c(O)nsc1Nc1ccc(Oc2ccc(C(F)(F)F)cc2)cc1 (stereo not shown) [compound 377] |
| 100 to 500 nM | CC(CO)NC(=N)c1c(O)nsc1Nc1ccc(Oc2ccc(C(F)(F)F)cc2)c(F)c1 (stereo not shown) [compound 378] |
| 100 to 500 nM | Cc1cc(Nc2snc(O)c2C(=N)NC(C)C)ccc1Oc1cc(F)ccc1Cl [compound 380] |
| 1 to 100 nM | CC(C)NC(=N)c1c(O)nsc1Nc1ccc(Oc2cc(F)ccc2Cl)c(Cl)c1 [compound 382] |
| 1 to 100 nM | CC(C)NC(=N)c1c(O)nsc1Nc1ccc(Oc2cccc(Cl)c2Cl)c(Cl)c1 [compound 383] |
| 100 to 500 nM | CC(C)NC(=N)c1c(O)nsc1Nc1ccc(Oc2cc(C(F)(F)F)ccc2Cl)cc1F [compound 384] |
| 1 to 100 nM | CC(CO)N=C(N)c1c(O)nsc1Nc1ccc(Oc2cc(C(F)(F)F)ccc2I)cc1 (stereo not shown) [compound 385] |
| > 500 nM | Cc1cc(Nc2snc(O)c2C(=N)NC(C)CO)ccc1Oc1ccc(C(F)(F)F)cc1 (stereo not shown) [compound 386] |
| 100 to 500 nM | CC(C)NC(=N)c1c(O)nsc1Nc1ccc(Oc2ccc(F)cc2)c(Cl)c1 [compound 387] |
| 100 to 500 nM | CC(C)NC(=N)c1c(O)nsc1Nc1ccc(Oc2ccc(C(F)(F)F)cc2)c(Cl)c1 [compound 388] |
| > 500 nM | Cc1cc(Nc2snc(O)c2C(=N)NC(C)C)ccc1Oc1ccc(C(F)(F)F)cc1 [compound 389] |
| 100 to 500 nM | CC(C)NC(=N)c1c(O)nsc1Nc1ccc(Oc2ccc(C(F)(F)F)cc2)c(F)c1 [compound 390] |
| 100 to 500 nM | CC(C)NC(=N)c1c(O)nsc1Nc1ccc(Oc2ccc(C(F)(F)F)cc2)cc1 [compound 391] |
| 100 to 500 nM | CC(CO)NC(=N)c1c(O)nsc1Nc1ccc(Oc2ccc(F)cc2)c(Cl)c1 (stereo not shown) [compound 392] |
| 1 to 100 nM | CC(CO)NC(=N)c1c(O)nsc1Nc1ccc(Oc2ccc(F)cc2)c(F)c1 (stereo not shown) [compound 393] |
| 1 to 100 nM | CC(CO)NC(=N)c1c(O)nsc1Nc1ccc(Oc2cc(C(F)(F)F)ccc2Cl)cc1F (stereo not shown) [compound 394] |
| 100 to 500 nM | CC(C)NC(=N)c1c(O)nsc1Nc1ccc(Oc2ccc(F)cc2)c(F)c1 [compound 395] |
| 100 to 500 nM | CC(CO)NC(=N)c1c(O)nsc1Nc1ccc(Oc2ccc(C(F)(F)F)cc2)c(Cl)c1 (stereo not shown) [compound 396] |
| > 500 nM | Cc1cc(Nc2snc(O)c2C(=N)NC(C)C)ccc1Oc1ccc(F)cc1 [compound 397] |
